Assay results published in patent US20060041013A1, “Alanosine formulations and methods of use” (priority 2004, published 2006).
“And” between values parts separate entries of the source, which are not always exact repeats. Identical values can stand only once. Like-named read-outs stand apart in the source and are kept apart here.

Tests used:
A549 = test: Docetaxel, 5-FU, SDX-102 alone or combined, MTT/MTS cytotoxicity (Example 4); type: cell-based; conditions: Homo sapiens; A549, NSCLC, single agent, MTT 72 hours
NCI-H226 [1] = test: Cell viability MTT assay (Example 3); type: cell-based; conditions: Homo sapiens, 72 h; NCI-H226, Mesothelioma, MTAP Positive; 3 days
[2] = Chirality analysis: conversion of L-alanosine to D-alanosine (chiral HPLC); type: physicochemical
Experimental: The following HPLC procedure was used to separate the L- and D-enantiomers of alanosine. The HPLC system (Agilent 1100) employed a 4.6 mm×150 mm column (Phenomenex) containing 5 μm particles (Chirex 3126, (D)-penicillamine) as the stationary phase. The system was equipped with both UV and polarimeter detectors. The UV detector was set to 254 nm to monitor products being eluted from the column, while the polarimeter detector was set to 670 nm. The eluent was 2 mM CuSO4/MeOH 70-30. The flow rate was 1.7 mL/min. at a pressure of 200 bar. For each run, a 100 μL sample containing 0.5 mg/mL in 2 mM CuSO4 was injected onto the column. […] To reverse the elution order, (L)-penicillamine could be used.

BX-PC3 = test: Docetaxel, 5-FU, SDX-102 alone or combined, MTT/MTS cytotoxicity (Example 4); type: cell-based; conditions: Homo sapiens, BXPC-3; BX-PC3, Pancreatic, single agent, MTT 72 hours
[3] = type: physicochemical; conditions: for Amount degraded/day (%) / Predicted purity after 2 years: Arrhenius analysis
Experimental: An Arrhenius analysis was performed to predict the loss of potency and increase in degradation products over time for commonly used storage temperatures for many drugs. […] Sets of the different solutions were then placed at 40° C., 50° C., or 60° C., and samples were taken every ten days over a 60 day period. […] Specifically, these plots show a distinct difference in purity as a function of pH and temperature. […] In the pH 7.5 formulation, there was more of each of these four impurities as compared to the pH 8.5 formulation. The impurity at RRT 0.32 formed readily as a function of temperature and pH. The impurities at RRTs 0.43 and 0.46 also formed as a function of temperature and pH, but not as readily.
Indeed, the purity of the samples is similar at pH 8.5 and 9.0. […] The trends in the data shown in FIG. 5 allow an Arrhenius analysis to be performed to predict changes in purity over time at various temperatures, particularly 5° C. and 25° C. Linear regression was used to determine the positions of the lines shown in FIG. 5, which then allowed the slope of the lines (i.e., the reaction rates, per day) to be determined for each pH and a given temperature. Arrhenius plots were the generated for each of pHs 7.5, 8.5 and 9.0 from the reaction rate versus the inverse temperatures. These plots are shown in FIG. 7, which allow the equation of the lines for each of three liquid formulations to be calculated. From these equations, the purity of any given temperature for a particular formulation at a given time can be predicted.
The HPLC system (Waters Corp., model 2690 Gradient HLPC System) employed a 4.6 mm×250 mm column (MetaChem Inc.) containing 5 μm particles (Inertsil ODS-3) as the stationary phase. The system was equipped with a UV/VIS detector (Waters Corp., model 996) set to 226 nm to monitor products being eluted from the column. Data generated from the column was managed on a personal computer running Empower Software (Waters Corp.). After preparation, the column was washed with at least 100 mL of water/acetonitrile (90:10, v/v), and stored at ambient temperature in the same solution.
In each HPLC run, the mobile phase, flowing at 1.0 mL/min., comprised 7.0 g of anhydrous monobasic potassium phosphate (KH2PO4; JT Baker) dissolved in 1000 mL H2O (at least HPLC grade). The pH of the solution was adjusted to 2.5 using phosphoric acid (85%, Fisher Scientific). 2.4 g of 1-decane sulfonic acid, sodium salt (Avocado Research Chemicals) was then mixed into the solution. 50 mL of acetonitrile (HPLC Grade, Burdick & Jackson) was then mixed with 950 mL of this solution. This mixture was then degassed by filtering through Durapore membrane filters, 0.45 μm, Type HVLP, under vacuum. The column flow rate was set at 1.0 mL/min.
Diluent was prepared by dissolving 3.5 g KH2PO4 and 3.5 g (Na2HPO4, Mallincrodt) in 1000 mL of HPLC grade H2O. […] Once prepared, an alanosine standard solution was stored at ambient temperature and retained for no more than seven days.
In addition to an alanosine standard solution, a sensitivity standard was also prepared by diluting 1 mL of the alanosine standard solution 1:100 using diluent.
HPLC runs were performed after the column had equilibrated for at least three hours in the mobile phase at room temperature. Column suitability was assessed at the beginning and end of each series of experiment as follows. Initially, two 10 μL aliquots of diluent were injected onto the column in duplicate, and the chromatographs recorded and examined.

HS-766T = test: Intracellular ATP levels (Cell-Titer Glow); type: cell-based; conditions: Hs766T, 72 h; HS-766T, Pancreatic, MTAP Positive; 3 day treatment
Experimental: (§1) MTAP status was determined using immunoblot analyses and correlated with the ability of an MTA analog to rescue ATP levels in cell lines treated with SDX-102. ATP levels were measured using Cell-Titer Glow™ (Promega) after a 3 day treatment with titrated concentrations of either SDX-102 or pemetrexed.
(§2) ATP values measured using Cell-Titer Glow™ (Promega) after 3 days exposure to the MTA analog. Solid lines in FIG. 8 represent the effect of titrations of SDX-102 from 0.05 μM-20 μM (FIG. 8A) or pemetrexed from 0.01 μM-5 μM (FIG. 8B) on cellular ATP levels. The dotted lines represent the effect of a single concentration of SDX-102 (10 μM) or pemetrexed (2.5 μM) with a titration of an MTA analog from 0.1 μM-50 μM.

NCI-H226 [4] = test: Intracellular ATP levels (Cell-Titer Glow); type: cell-based; conditions: Homo sapiens, 72 h; NCI-H226, Mesothelioma, MTAP Positive; 3 day treatment
Experimental: as §1, §2

A-427 = test: Intracellular ATP levels (Cell-Titer Glow); type: cell-based; conditions: Homo sapiens, 72 h; A-427, NSCLC, MTAP Positive; 3 day treatment
Experimental: as §1, §2

[5] = t1 yr., pH 7.5, 25° C., listed as L
[6] = t1 yr., pH 8.5, 25° C., listed as L
[7] = t6 mo., pH 8.5, 25° C., listed as L

## NC(CN(O)N=O)C(=O)O [L-alanosine, L(−)-2-amino-3-nitrosohydroxylaminopropionic acid]
A549
  IC50: 0.3 ± 0.1 µM
NCI-H226 [1]
  IC50: 1.5 µM
[2]; after one year at 5° C., pH 7.5 or 8.5
  conversion to D-alanosine: no conversion to D-alanosine
[2]; storage at 25° C.
  conversion to D-alanosine at pH 8.5 compared to pH 7.5: 5-10 times
[2]; t0
  % Total Peak Area L: 100%
[2]; t1 yr., pH 7.5, 5° C.
  % Total Peak Area L: 100%
[2]; [5]
  % Total Peak Area D: 0.99% and 0.78%
  % Total Peak Area L: 99.01% and 99.22%
[2]; t1 yr., pH 8.5, 5° C.
  % Total Peak Area L: 100%
[2]; [6]
  % Total Peak Area D: 4.45% and 4.56%
  % Total Peak Area L: 95.55% and 95.44%
[2]; t6 mo., pH 8.5, 5° C.
  % Total Peak Area L: 100%
[2]; [7]
  % Total Peak Area D: 2.03% and 2.04%
  % Total Peak Area L: 97.97% and 97.96%
BX-PC3
  IC50: 3 ± 1 µM
[3]; 20 mg/mL, pH 7.5, 5° C.
  Amount degraded/day (%): 0.000374%
  Predicted purity after 2 years: 99.727%
[3]; 20 mg/mL, pH 7.5, 25° C.
  Amount degraded/day (%): 0.000601%
  Predicted purity after 2 years: 99.561%
[3]; 20 mg/mL, pH 8.5, 5° C.
  Predicted purity after 2 years: 99.985%
[3]; 20 mg/mL, pH 8.5, 25° C.
  Predicted purity after 2 years: 99.930%
[3]; 20 mg/mL, pH 8.5-9.0, stored at 25° C., at least two years
  calculated purity: more than 99.9%
[3]; 20 mg/mL, pH 9.0, 5° C.
  Predicted purity after 2 years: 100.00%
[3]; 20 mg/mL, pH 9.0, 25° C.
  Predicted purity after 2 years: 100.00%
[3]; solutions pH 7.5, 8.5, 9.0 stored at 40° C.
  trend in purity over 60 days: no trend in decreased purity
HS-766T
  IC50: 2 µM
NCI-H226 [4]
  IC50: 0.4 µM
A-427
  IC50: 1.5 µM
